# {TAMRA} = 6-carboxytetramethylrhodamine (NHS ester) fluorophore; {FAM} = 6-carboxyfluorescein (6-FAM) fluorophore; {IBFQ} = Iowa Black FQ dark quencher; {IBRQ} = Iowa Black RQ dark quencher
# Assays:
# [1] = tested on: S. epidermidis (ATCC 12228); assay: Single cell AST in adaptable microfluidic device; assay type: cell-based; conditions: for antibiotic response in polymicrobial sample: ampicillin 8 μg/mL, mixed with E. coli EC137 1:1
# Excerpt: (§1) Taking advantage of microfluidic confinement, single cell AST can be performed phenotypically in the presence of antibiotics in the channel. Resistant strains can grow in the presence of the antibiotic while the antibiotic would inhibit the growth of susceptible strains (FIG. 1C). As the cross-section of the channels is compatible with the size of the pathogen, the bacterial growth is confined along the microchannel. The change in length of the bacteria in the channel over time is used to quantitatively measure the growth of the bacteria.
# (§2) In embodiments, bacterial trapping channels of this disclosure are also capable of single cell AST by monitoring the phenotypic growth of the trapped bacteria in the channel. In control groups without antibiotics, the bacteria grew exponentially along the microchannels (FIG. 2B, E, H). […] Growth was measured by an increase in the length of the bacteria occupying the microchannel. The length was normalized according to the initial length for estimating the growth rate, to account for variation of the initial length. Comparison of the growth rate between the control group and the antibiotic group determined the susceptibility of the bacteria. […] Unless otherwise specified, this definition is applied throughout Part I of this disclosure.
# (§3) E. coli, S. epidermidis, and M. bacteremicum were cultured in Mueller Hinton broth, Nutrient broth, and ATCC medium 1395, respectively. The bacteria were cultured to an optical density at 600 nm (OD600) around 0.2 (measured with Nanodrop 2000, Thermo Scientific) and diluted to 5×10^5 cfu/mL following the CLSI guideline. […] The concentration of oxacillin for S. epidermidis was 4 μg/mL. A 20 μl sample was loaded into the inlet of the microchannel. Culture medium was applied to immerse the whole device. The device was then loaded on a microscope (Leica DMI4000B) thermal stage for real-time monitoring (SensiCam QE, PCO) of the bacterial growth. The length of the bacteria occupying the microchannel was measured in ImageJ (imagej.nih.gov/ij/). To model the polymicrobial infection with different species, E. coli (EC137) and S. epidermidis were cultured to OD600 around 0.2, mixed at ratio of 1:1, and diluted to a final concentration of 1×10^6 cfu/mL with and without ampicillin (8 μg/mL). To mimic the polymicrobial infection with different strains, E. coli (EC137 and EC136) were mixed at a ratio of 10:1 and diluted to a final concentration of 5×10^6 cfu/mL with and without ampicillin. In this embodiment, the antibiotic resistance was determined as 50% reduction in the growth rate (or two-fold difference in growth rate) in the antibiotic group based on the distribution of the growth rate of single cells. In particular, we define the threshold value based on the standard derivation of single cell growth and t-statistics (two-tailed, unpaired). In our calibration tests, the standard deviations of the growth rate were below 25% of the mean (in the worst case scenario). In the calculation, the degree of freedom was 8, since at least 5 bacteria were used in each group. A 50% reduction in growth rate is equivalent to a p-value of approximately 0.022.
# [2] = tested on: E. coli (EC137); assay: Single cell AST in adaptable microfluidic device; assay type: cell-based; conditions: for antibiotic response in polymicrobial sample: ampicillin 8 μg/mL, mixed with S. epidermidis or EC136
# Excerpt: as §1, §2, §3
# [3] = tested on: E. coli (EC136); assay: Single cell AST in adaptable microfluidic device; assay type: cell-based; conditions: ampicillin; EC137 and EC136 mixed 10:1
# Method: We further evaluated the capability of the microfluidic system for identifying samples with multiple strains of the same species, which is challenging for genotypic diagnosis. Two strains of E. coli (EC137 and EC136 at a 10:1 ratio) with different antibiotic resistance profiles were tested. EC137 is susceptible to ampicillin while EC136 is resistant to ampicillin. Both strains were trapped in the microchannels at 180 kPa pressure with no spatial separation in the microchannel (FIG. 3F). […] In the antibiotic group, EC136 grew exponentially with ampicillin in the medium, whereas EC137 was lysed by ampicillin. FIG. 3J illustrates the growth curves of EC136 and EC137 in the same test.
# E. coli, S. epidermidis, and M. bacteremicum were cultured in Mueller Hinton broth, Nutrient broth, and ATCC medium 1395, respectively. The bacteria were cultured to an optical density at 600 nm (OD600) around 0.2 (measured with Nanodrop 2000, Thermo Scientific) and diluted to 5×10^5 cfu/mL following the CLSI guideline. […] The concentration of oxacillin for S. epidermidis was 4 μg/mL. […] The length of the bacteria occupying the microchannel was measured in ImageJ (imagej.nih.gov/ij/). […] In this embodiment, the antibiotic resistance was determined as 50% reduction in the growth rate (or two-fold difference in growth rate) in the antibiotic group based on the distribution of the growth rate of single cells. […]
# [4] = tested on: E. coli EC137; assay: NAME pathogen identification with microfluidic single cell AST; assay type: cell-based; conditions: growth in channels with ciprofloxacin
# Excerpt: (§4) We integrated pathogen identification and single cell AST by applying a microfluidic confinement technique (FIG. 23A) (18, from which the description of the microfluidic device and technique is incorporated herein by reference). […] In this integrated identification and AST assay, the bacteria were transformed, loaded into the microchannels via capillary flow, and trapped in the channels for phenotypic AST. […] AST was implemented by monitoring the bacterial growth in the channels with and without the presence of antibiotics.
# (§5) The bacteria suspension (1 μl) was loaded onto a microscope slide and covered with a cover glass for imaging and counting using a fluorescence microscope (Leica DMI 4000B, objective 40×). The transformation efficiency was estimated by the number of bacteria with an observable fluorescence intensity over the total number of bacteria (bright-field). To conduct AST, the transformed bacteria were loaded onto the microfluidic device by capillary force.
# [5] = tested on: E. coli EC132; assay: as above; assay type: cell-based; conditions: growth in channels with ciprofloxacin
# Excerpt: as §4, §5
# [6] = tested on: M. bacteremicum (ATCC 25791); assay: Single cell AST in adaptable microfluidic device; assay type: cell-based; conditions: ciprofloxacin 2 μg/mL; growth/non-growth defined by 50% reduction in growth rate
# Excerpt: as §1, §2, §3
# [7] = tested on: EC137; assay: Testing bacteria resistance with agar pads; assay type: cell-based, E. coli; conditions: with and without ciprofloxacin
# Excerpt: FIG. 28. Testing bacteria resistance with agar pads. (A) Schematics of the procedure for creating agar pads for single cell AST. […] Scale bars, 25 μm.
# [8] = tested on: bacterial 16S rRNA of E. coli; assay: Intracellular 16S rRNA detection with double-stranded probes delivered by NAME; assay type: cell-based
# Excerpt: (§6) As discussed above, the present disclosure provides a microwave electroporation approach for transforming molecular probes into viable bacteria for intracellular sensing and pathogen identification (FIG. 24). Multiwall carbon nanotubes, which couple and localize the microwave energy, can enhance the electric field in a manner similar to a lightning rod for microwave electroporation with a minimal effect on the cell viability^(14, 15). To evaluate the feasibility of multiplex single cell pathogen identification using NAME, two molecular probes targeting the species-specific regions of bacterial 16S rRNA of E. coli (EC probe) and P. aeruginosa (PA probe) were designed and transformed into the bacteria (Tables 4-5). The performance of the double-stranded nucleic acid probe was first calibrated for use in homogeneous sensing (FIG. 25). For multiplex detection, the PA probe was labeled with 6-carboxyfluorescein (6-FAM) and the EC probe was labeled with 6-carboxytetramethylrhodamine (6-TAMRA). Uropathogenic E. coli and P. aeruginosa were transformed with both probes for pathogen identification (FIG. 20D).
# (§7) Four double-stranded probes were used in this disclosure (Table 4). Each probe contained two DNA strands. The donor strands were 22-24 nucleotides long and complementary to the target RNA of interest^(27, 28). The fluorophores, 6-FAM (Fluorescein) or 6-TAMRA (NHS Ester), were labeled at the 3′ end of the donor strands. The quencher strands were 11-12 nucleotides in length. The dark quenchers, Iowa Black FQ for 6-FAM or Iowa Black RQ for 6-TAMRA, were labeled at the 5′ end of the quencher strands immediately adjacent to the fluorophores on the donor strands. The probes were synthesized by Integrated DNA Technologies (Coralville, IA). Other reagents were purchased from Sigma Inc. (St. Louis, MO) unless otherwise specified. To conduct the assay, the probes were made by mixing the fluorophore and quencher strands in the buffer solution, which contains 10 mM Tris-EDTA with 100 mM NaCl at a 1:3 molar ratio, at 95° C. for 5 minutes. The mixtures were then allowed to cool down to room temperature slowly. The final concentration of the probes in the transformation test was 1.5×10^3 nM.
# (§8) Bacteria were grown in Mueller Hinton Broth. To transform the double-stranded probe into bacteria, 100 μl of bacterial sample was centrifuged at 4500 rpm for 5 minutes and washed twice with phosphate buffer (PBS 1×). The multiwall carbon nanotubes that are functionalized with a carboxyl group (COOH) have a diameter of 30±15 nm and a length from 1 to 5 μm (NanoLab, Inc.). The nanotube solution (30 mg/ml) was filtered with a 1 μm microfilter. The pellet was resuspended into 100 μl filtered nanotube solution and incubated for 10 minutes at room temperature. Then, 10 μl molecular probe was added and incubated at room temperature for 10 minutes. The sample was incubated in ice for 5 minutes and then put into a microwave oven (700 W, 2.45 GHz) for 10 seconds. The microwave treated bacteria was incubated at room temperature for 30 minutes and washed 3 times with PBS (1×) to remove the extra probes and resuspended in PBS for imaging.
# [9] = tested on: bacterial 16S rRNA of P. aeruginosa; assay: as above; assay type: cell-based
# Excerpt: as §6, §7, §8
molecule,measurement,setting,value
CC1(C)S[C@@H]2[C@H](NC(=O)[C@H](N)c3ccccc3)C(=O)N2[C@H]1C(=O)O [ampicillin],antibiotic response in polymicrobial sample,[1],resistant
same,antibiotic response in polymicrobial sample,[1]; listed as Ampicillin,no effect
same,antibiotic response in polymicrobial sample,[2],susceptible
same,antibiotic response in polymicrobial sample,[2]; listed as Ampicillin,bactericidal effect
same,antibiotic response in polymicrobial sample,[3],resistant
O=C(O)c1cn(C2CC2)c2cc(N3CCNCC3)c(F)cc2c1=O [ciprofloxacin],antimicrobial susceptibility after NAME,[4],susceptible
same,antimicrobial susceptibility after NAME,[5],resistant
same,antimicrobial susceptibility (growth in microchannel),"[2]; ciprofloxacin 4 μg/mL, growth/non-growth defined by 50% reduction in growth rate",effective
same,antimicrobial susceptibility (growth in microchannel),[6],effective
same,growth in agar pads,[7],inhibited the growth
Cc1onc(-c2ccccc2)c1C(=O)N[C@@H]1C(=O)N2[C@@H]1SC(C)(C)[C@@H]2C(=O)O [oxacillin],antimicrobial susceptibility (growth in microchannel),"[1]; oxacillin 4 μg/mL, growth/non-growth defined by 50% reduction in growth rate",completely inhibited the growth
"EC probe (Red): double-stranded DNA probe for E. coli 16S rRNA; donor SEQ ID 3 with 3′ 6-TAMRA, quencher SEQ ID 4 with 5′ Iowa Black RQ (sense GGTATTAACTTTACTCCCTTCCTC; antisense GAGGAAGGGAGT; sense: 3' {TAMRA}, sugars by position and backbone not given here; antisense: 5' {IBRQ}, sugars by position and backbone not given here)",single cell pathogen identification of clinical isolates,[8]; isolates from clinical blood and urine samples,specifically identified
same,fluorescence signal from the probe in the bacteria,"[8]; samples with E. coli only, both probes transformed",clearly observed
same,fluorescence signal from the probe in the bacteria (non-target probe),"[9]; P. aeruginosa samples, EC probe",not
"PA probe: double-stranded DNA probe for P. aeruginosa 16S rRNA; donor SEQ ID 6 with 3′ 6-FAM, quencher SEQ ID 7 (sense GCTGAACCACCTACGCGCGCTTT; antisense AAAGCGCGCGTA; sense: 3' {FAM}, sugars by position and backbone not given here; antisense: 5' {IBFQ}, sugars by position and backbone not given here)",fluorescence signal from the probe in the bacteria (non-target probe),"[8]; samples with E. coli only, PA probe",not observable
same,fluorescence signal from the probe in the bacteria,"[9]; P. aeruginosa samples, both probes transformed",high fluorescence signal
same,single cell pathogen identification of clinical isolates,[9]; isolates from clinical urine samples,specifically identified
